From ChEMBL document CHEMBL1141987, “Two new irreversible inhibitors of dihydrodipicolinate synthase: diethyl (E,E)-4-oxo-2,5-heptadienedioate and diethyl (E)-4-oxo-2-heptenedioate” (Bioorg Med Chem Lett, 2005) come the findings set out here.

Experiment [1] has as its target T1, 4-hydroxy-tetrahydrodipicolinate synthase (Escherichia coli K-12) (UniProt P0A6L2).
T1 sequence (whole entry): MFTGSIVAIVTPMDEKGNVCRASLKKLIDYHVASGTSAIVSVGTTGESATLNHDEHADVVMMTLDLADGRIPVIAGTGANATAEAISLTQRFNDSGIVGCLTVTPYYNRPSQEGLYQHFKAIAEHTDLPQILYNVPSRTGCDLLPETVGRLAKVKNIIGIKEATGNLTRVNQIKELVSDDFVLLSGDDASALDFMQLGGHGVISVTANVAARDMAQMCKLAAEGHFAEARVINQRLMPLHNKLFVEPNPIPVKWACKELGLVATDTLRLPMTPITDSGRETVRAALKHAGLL
As to the kind of experiment: Inhibitory concentration against Escherichia coli dihydrodipicolinate synthase after 15 minutes.

For experiment [2], the target named is T1, 4-hydroxy-tetrahydrodipicolinate synthase (Escherichia coli K-12). As to the kind of experiment: Inhibitory concentration against Escherichia coli dihydrodipicolinate synthase after 30 minutes.

Turning to `CCOC(=O)/C=C/C(=O)CCC(=O)OCC`, the Concentration in experiment [1] and in experiment [2] was 50 nM in each case.
